# Results published in patent US10570117B2, “Phenylimidazole compound” (Otsuka Pharmaceutical Factory, Inc., priority 2015, dated 2020).
# Like-named read-outs stand apart in the source and are kept apart here.
# Assays:
# [1] = system: lipoprotein lipase (LPL) gene; experiment: LPL mRNA elevating action (RT-PCR quantification of LPL mRNA in C2Cl2 cells); format: cell-based, mouse; details: Mus musculus, 24 h, compound 10 μM, ratio relative to the amount of LPL mRNA in cells with DMSO only, read-out: Rate of increase in LPL mRNA
# How it was run: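 Mouse striated-muscle C2Cl2 cells in DMEM with 10% FBS exposed to compounds at 10 μM for 24 h. LPL mRNA quantified by RT-PCR and real-time PCR (20 cycles), expressed as ratio to DMSO-only cells set at 1.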
# [2] = Solubility in gastric juice or intestinal juice model fluid (precipitation method using DMSO); format: physicochemical; details: room temperature
# How it was run: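 Compound in DMSO added to JP disintegration test fluid 1 (pH 1.2) or fluid 2 (pH 6.8) and shaken 24 h at room temperature. After filtration, dissolved concentration (μg/mL) determined by UV absorbance against compound calibration curves.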
# [3] = pH 1.2, simulated gastric fluid, kinetic from dmso stock, 1st fluid for Disintegration Test of Japanese Pharmacopoeia (pH: 1.2), read-out: Solubility (μg/mL) 1st fluid
# [4] = pH 6.8, kinetic from dmso stock, 2nd fluid for Disintegration Test of Japanese Pharmacopoeia (pH: 6.8), read-out: Solubility (μg/mL) 2nd fluid
SMILES,melting point,fold induction at 10 µM [1],"solubility at 24 h [2, 3]","solubility at 24 h [2, 4]"
COc1cc(OCc2ccc(C(F)(F)F)cc2)ccc1-c1nc(-c2ccc(Cl)cn2)[nH]c1C [Example 34],170 to 173 °C,2.22,17 µg/mL,< 0.3 µg/mL
"COc1cc(OCc2ccc(C(F)(F)F)cn2)ccc1-c1nc(-c2ccc(F)nc2)n(C)c1Cl [Example 169, 2-[[4-(5-chloro-2-(6-fluoropyridin-3-yl)-1-methyl-1H-imidazol-4-yl)-3-methoxyphenoxy]methyl]-5-(trifluoromethyl)pyridine]",158 to 160 °C (dec.),3.12,96.3 µg/mL,< 0.4 µg/mL
COc1cc(OCc2ncc(C(F)(F)F)cc2F)ccc1-c1[nH]c(C2CCC(F)(F)CC2)nc1Br [Example 337],190 to 191 °C,3.07,110 µg/mL,0.5 µg/mL
COc1cc(OCc2ccc(C(F)(F)F)cn2)ccc1-c1c[nH]c(-c2ccc(O)nc2)n1 [Example 18],> 250 °C,1.05,43.5 µg/mL,3.7 µg/mL
COc1cc(OCc2ncccc2C(F)(F)F)ccc1-c1nc(-c2ccc(F)nc2)[nH]c1Cl [Example 214],143 to 146 °C,3.66,> 96 µg/mL,7.1 µg/mL
COc1cc(OCc2ncc(C(F)(F)F)cc2F)ccc1-c1[nH]c(C2CC2)nc1Cl [Example 377],151 to 154 °C,1.88,84.6 µg/mL,0.7 µg/mL
COc1cc(-c2[nH]c(-c3ccc(F)nc3)nc2Cl)ccc1OC(C)c1ncc(C(F)(F)F)cc1F (centres unmarked) [Example 396],113 to 118 °C,2.93,28 µg/mL,< 0.4 µg/mL
COc1cc(OCc2ncc(C(F)(F)F)cc2Cl)ccc1-c1cnc(-c2ccc(F)nc2)[nH]1 [Example 132],185 to 187 °C,2.77,5.9 µg/mL,< 0.3 µg/mL
COc1cc(OCc2ccc(C(F)(F)F)nc2)ccc1-c1c(C)nc(-c2ccc(F)nc2)n1C [Example 161],123 to 126 °C,3.06,> 94 µg/mL,3.9 µg/mL
COc1cc(OCc2ccc(C(F)(F)F)cn2)ccc1-c1nc(-c2ccc(Cl)nc2)[nH]c1Br [Example 225],186 to 188 °C,2.8,5.5 µg/mL,0.9 µg/mL
COc1c(OCc2ccc(C(F)(F)F)nc2)ccc(-c2[nH]c(C3CCC(F)(F)CC3)nc2Cl)c1OC [Example 200],148 to 150 °C,4.73,98.4 µg/mL,2.4 µg/mL
COc1cc(OCc2ccc(C(F)(F)F)cn2)ccc1-c1c[nH]c(-c2ccc(F)nc2)n1 [Example 124],141 to 144 °C,2.28,18.7 µg/mL,< 1.6 µg/mL
COc1cc(OCc2ccncc2C(F)(F)F)ccc1-c1[nH]c(-c2ccc(F)nc2)nc1Br [Example 276],199 to 203 °C (dec.),2.36,66.5 µg/mL,6.7 µg/mL
Oc1ccc(-c2cnc(-c3ccc(F)nc3)[nH]2)c(Cl)c1 [Example 359],223 to 225 °C,1.75,57.3 µg/mL,52.8 µg/mL
CCc1cc(OCc2ncc(C(F)(F)F)cc2F)ccc1-c1[nH]c(-c2ccc(F)nc2)nc1Cl [Example 364],187 to 188 °C,2.65,< 0.4 µg/mL,< 0.4 µg/mL
COc1cc(-c2[nH]c(C3C4CC5CC(C4)CC3C5)nc2Cl)ccc1OCc1ccc(C(F)(F)F)cn1 (centres unmarked) [Example 201],238 to 240 °C (dec.),2.45,90 µg/mL,2.6 µg/mL
COc1cc(OCc2ncc(C(F)(F)F)cc2F)ccc1-c1[nH]c(C2CCC(F)(F)CC2)nc1Cl [Example 336],172 to 174 °C,3.23,89.3 µg/mL,0.4 µg/mL
Fc1ccc(-c2nc(Br)c(-c3ccc(OCc4ncc(C(F)(F)F)cc4F)cc3)[nH]2)cn1 [Example 345],155 to 158 °C,2.39,< 0.4 µg/mL,< 0.4 µg/mL
COc1cc(OCc2ncc(C(F)(F)F)cc2F)ccc1-c1[nH]c(C2CC(F)(F)C2)nc1Cl [Example 353],167 to 169 °C,4.08,85.4 µg/mL,0.5 µg/mL
Fc1cc(C(F)(F)F)cnc1COc1ccc(-c2[nH]c(C3CC(F)(F)C3)nc2Cl)cc1 [Example 397],162 to 167 °C,4.58,15.9 µg/mL,< 0.3 µg/mL
COc1cc(O)ccc1-c1[nH]c(-c2ccc(F)nc2)nc1C [Example 333],154 to 159 °C,1.22,59 µg/mL,5.2 µg/mL
COc1cc(OCc2cnc(C)cn2)ccc1-c1nc(-c2ccc(F)nc2)[nH]c1Cl [Example 216],208 to 210 °C (dec.),2.62,84.3 µg/mL,1.8 µg/mL
COc1cc(-c2[nH]c(C3CCC(F)(F)CC3)nc2Cl)ccc1OCc1ncc(C(F)(F)F)cc1F [Example 326],173 to 176 °C,2.63,63.7 µg/mL,0.7 µg/mL
Fc1ccc(-c2nc(Cl)c(-c3ccc(OCc4ncc(C(F)(F)F)cc4F)cc3Cl)[nH]2)cn1 [Example 361],158 to 160 °C,5.51,3.4 µg/mL,< 0.4 µg/mL
COc1cc(OCc2ncc(F)cc2F)ccc1-c1[nH]c(-c2ccc(Cl)nc2)nc1Cl [Example 247],187 to 190 °C,2.25,8.4 µg/mL,5.3 µg/mL
COc1cc(OCc2cccnc2C(F)(F)F)ccc1-c1cnc(-c2ccc(F)nc2)[nH]1 [Example 112],187 to 190 °C,2.39,12 µg/mL,2.1 µg/mL
COc1cc(OCc2ccc(C(F)(F)F)cn2)ccc1-c1c[nH]c(-c2cccnc2)n1 [Example 89],240 to 242 °C,1.69,85.4 µg/mL,1.8 µg/mL
COc1cc(OCc2ncc(C(F)(F)F)cc2F)ccc1-c1cnc(C2CCCC2)[nH]1 [Example 365],97 to 102 °C,3.02,77.9 µg/mL,31.2 µg/mL
COc1c(OCc2ccc(C(F)(F)F)cn2)ccc(-c2[nH]c(C3CCC(F)(F)CC3)nc2Cl)c1OC [Example 205],175 to 177 °C,5.41,> 106 µg/mL,< 9.5 µg/mL
